The source of these data is patent publication US7902225B2, “Mycobacterial inhibitors” (Janssen Pharmaceutica NV, priority 2005, dated 2011).

In one data set the test system is M. Smegmatis ATCC607. The experiment in a line: In-vitro anti-bacterial activity against strain M. smegmatis ATCC607 (growth inhibition, Alamar Blue fluorescence). The data set is classed as cell-based. The conditions noted are these: 48 hours at 37° C.; for IC50: Mycolicibacterium smegmatis, read-out: M. smegmatis (pIC50) (converted). The protocol: D.2. In-vitro Method for Testing Compounds for Anti-bacterial Activity Against Strain M. Smegmatis ATCC607. Flat-bottom, sterile 96well plastic microtiter plates were filled with 180 μl of sterile deionized water, supplemented with 0.25% BSA. Subsequently, stock solutions (7.8× final test concentration) of compounds were added in 45 μl volumes to a series of duplicate wells in column 2 so as to allow evaluation of their effects on bacterial growth. Serial five-fold dilutions (45 μl in 180 μl) were made directly in the microtiter plates from column 2 to 11 using a customised robot system (Zymark Corp., Hopkinton, Mass.). Pipette tips were changed after every 3 dilutions to minimize pipetting errors with high hydrophobic compounds. Untreated control samples with (column 1) and without (column 12) inoculum were included in each microtiter plate. Approximately 250 CFU per well of bacteria inoculum, in a volume of 100 μl in 2.8× Mueller-Hinton broth medium, was added to the rows […]. The same volume of broth medium without inoculum was added to column 12 in row A to H. The cultures were incubated at 37° C. for 48 hours in a humidified 5% CO2 atmosphere (incubator with open air valve and continuous ventilation). At the end of incubation, two days after inoculation, the bacterial growth was quantitated fluorometrically. Therefore Alamar Blue (10×) was added to all wells in a volume of 20 μl and plates were incubated for another 2 hours at […] The fluorescence was read in a computer-controlled fluorometer (Cytofluor, Biosearch) at an excitation wavelength of 530 nm and an emission wavelength of 590 nm (gain 30). The % growth inhibition achieved by the compounds was calculated according to standard methods. The pIC50 was defined as the 50% inhibitory concentration for bacterial growth.

For data set [1], the system named is Mycobacterium tuberculosis (strain H37RV). The experiment in a line: In-vitro testing of compounds against M. tuberculosis (growth inhibition, Resazurin fluorescence). It counts as cell-based. The conditions noted are these: bacterial growth inhibition, 7 days at 37° C.; for IC50: Mycobacterium tuberculosis, 168 h, read-out: M. tuberculosis (pIC50) (converted).

Structures can show the parent of a compound that is named as a salt.

In turn, `CN(C)CCC(O)(c1cccc2ccccc12)c1cc(Br)cc2cc(-c3ccccc3)c(=O)[nH]c12` (centres unmarked) yielded a melting point of 190 °C.

For the molecule `CN(C)CCC(O)(c1cc(F)cc(F)c1)c1ccc2nc(-c3cccnc3)cc(-c3ccccc3)c2c1` (centres unmarked) (as salt: salt) [Compound 8], the melting point came to 151 °C.

On to `CN(C)CCC(O)(c1cc(F)cc(F)c1)c1cccc2nc(N(C)C)c(-c3ccccc3)cc12` (centres unmarked) (as salt: salt) [Compound 10], for which the melting point stood at 136 °C.

Molecule `COc1nc2c(C(O)(CCN(C)C)c3cc(F)cc(F)c3)cc(-c3cccnc3)cc2cc1-c1ccccc1` (centres unmarked) (as salt: salt) [Compound 13] displayed a melting point of 156 °C.

Regarding `COc1nc2c(C(O)(CCN(C)C)c3ccccc3)cc(Br)cc2cc1Cc1ccccc1` (centres unmarked) [Compound 3], the melting point was found to be 66 °C. Also, in the data set with M. Smegmatis ATCC607, the IC50 was 1.26 µM.

For `CN(C)CCC(O)(Cc1c(Cc2ccccc2)c(-c2ccco2)nc2ccccc12)c1cc(F)cc(F)c1` (centres unmarked) [Compound 5], the melting point was determined as 130 °C. Further, the IC50 in the data set on M. Smegmatis ATCC607 was 0.398 µM.

In turn, `CN(C)CCC(O)(c1ccccc1)c1cc(Br)cc2cc(Cc3ccccc3)c(N3CCOCC3)nc12` (centres unmarked) [Compound 7] had a melting point of 70 °C. The IC50 in the data set with M. Smegmatis ATCC607 is 1.58 µM.

`CN(C)CCC(O)(Cc1c(Cc2ccccc2)c(-c2cccnc2)nc2ccccc12)c1cc(F)cc(F)c1` (centres unmarked) [Compound 9] displayed a melting point of 164 °C. Moreover, the IC50 in the data set on M. Smegmatis ATCC607 was 6.31 µM.

As for `CN(C)CCC(O)(c1ccccc1)c1cc(Br)cc2cc(Cc3ccccc3)c(OCCN3CCCCC3)nc12` (centres unmarked) [Compound 11], the IC50 (in data set [1]; in the data set on M. Smegmatis ATCC607) was 3.16 µM in each case.

For the molecule `COc1nc2c(C(O)(CCN(C)C)c3ccccc3)cc(-c3cccnc3)cc2cc1Cc1ccccc1` (centres unmarked) [Compound 14], the melting point is 180 °C. In addition, the IC50 with M. Smegmatis ATCC607 is 7.94 µM.

Regarding `CN(C)CCOc1nc2c(C(O)(CCN(C)C)c3ccccc3)cc(Br)cc2cc1Cc1ccccc1` (centres unmarked) [Compound 75], the IC50 in data set [1] is 5.01 µM; in the data set with M. Smegmatis ATCC607, 6.31 µM.

Take `COc1nc2c(C(O)(CCN(C)C)c3cccs3)cc(-c3cccnc3)cc2cc1Cc1ccccc1` (centres unmarked) [Compound 77]: in the data set on M. Smegmatis ATCC607, the IC50 is 12.6 µM.

As to `CN(C)CCC(O)(c1ccccc1)c1cc(Br)cc2cc(Cc3ccccc3)c(N(C)C)nc12` (centres unmarked) [Compound 78], in the data set with M. Smegmatis ATCC607, the IC50 was 1.58 µM.

Consider `CN(C)CCC(O)(c1ccccc1)c1cc(Br)cc2cc(Cc3ccccc3)c(N3CCN(Cc4ccccc4)CC3)nc12` (centres unmarked) [Compound 79], for which the “M. tuberculosis (pIC50)” value in data set [1] is 4.6. In addition, the “M. smegmatis (pIC50)” value with M. Smegmatis ATCC607 is listed as 6.2.

For `CN(C)CCC(O)(c1ccccc1)c1cc(Br)cc2cc(Cc3ccccc3)c(N3CCCC3)nc12` (centres unmarked) [Compound 80], the “M. tuberculosis (pIC50)” value in data set [1] is recorded as 5.05. In the data set on M. Smegmatis ATCC607, the “M. smegmatis (pIC50)” value stood at 6.1.

In the case of `CN(C)CCC(O)(c1ccccc1)c1cc(Br)cc2cc(Cc3ccccc3)c(N3CC=CCC3)nc12` (centres unmarked) [Compound 81], in the data set with M. Smegmatis ATCC607, the IC50 is 1.26 µM.

In the case of `CC(=O)c1ccc(N2CCN(c3nc4c(C(O)(CCN(C)C)c5ccccc5)cc(Br)cc4cc3Cc3ccccc3)CC2)cc1` (centres unmarked) [Compound 82], the IC50 with M. Smegmatis ATCC607 was 1.58 µM.

Turning to `CN(C)CCC(O)(c1ccccc1)c1cc(Br)cc2cc(Cc3ccccc3)c(N(C)CCc3ccccc3)nc12` (centres unmarked) [Compound 83], the IC50 in the data set on M. Smegmatis ATCC607 is 1.58 µM.

For `CN(C)CCC(O)(c1ccccc1)c1cc(Br)cc2cc(Cc3ccccc3)c(N3CCC(Cc4ccccc4)CC3)nc12` (centres unmarked) [Compound 84], the IC50 in the data set on M. Smegmatis ATCC607 is 2 µM.

For `CN(C)CCC(O)(c1ccccc1)c1cc(Br)cc2cc(Cc3ccccc3)c(N3CCN(c4ccccn4)CC3)nc12` (centres unmarked) [Compound 85], the “M. smegmatis (pIC50)” value in the data set on M. Smegmatis ATCC607 came out at 5.7.

`CN(C)CCC(O)(c1ccccc1)c1cc(Br)cc2cc(Cc3ccccc3)c(N3CCN(C(=O)c4ccco4)CC3)nc12` (centres unmarked) [Compound 86]: in the data set on M. Smegmatis ATCC607, the “M. smegmatis (pIC50)” value turned out to be 5.7.

Consider `CN(C)CCC(O)(c1ccccc1)c1cc(Br)cc2cc(Cc3ccccc3)c(NCCCN3CCOCC3)nc12` (centres unmarked) [Compound 87], for which, in the data set with M. Smegmatis ATCC607, the IC50 is 2.51 µM.

On to `CN(C)CCC(O)(c1ccccc1)c1cc(Br)cc2cc(Cc3ccccc3)c(NCCC(c3ccccc3)c3ccccc3)nc12` (centres unmarked) [Compound 88], for which the IC50 in the data set on M. Smegmatis ATCC607 was 2.51 µM.

In the case of `CN(C)CCC(O)(c1ccccc1)c1cc(Br)cc2cc(Cc3ccccc3)c(N3CCN(c4ncccn4)CC3)nc12` (centres unmarked) [Compound 89], in the data set on M. Smegmatis ATCC607, the IC50 is 2.51 µM.

`COCCCNc1nc2c(C(O)(CCN(C)C)c3ccccc3)cc(Br)cc2cc1Cc1ccccc1` (centres unmarked) [Compound 90]: the “M. smegmatis (pIC50)” value in the data set with M. Smegmatis ATCC607 is on record as 5.5.

Turning to `CC1CCN(c2nc3c(C(O)(CCN(C)C)c4ccccc4)cc(Br)cc3cc2Cc2ccccc2)CC1` (centres unmarked) [Compound 91], the “M. smegmatis (pIC50)” value in the data set with M. Smegmatis ATCC607 came to 5.3.

As for `CN(C)CCC(O)(c1ccccc1)c1cc(Br)cc2cc(Cc3ccccc3)c(NCCCN3CCCC3=O)nc12` (centres unmarked) [Compound 92], the “M. smegmatis (pIC50)” value with M. Smegmatis ATCC607 is reported as 5.2.

Turning to `CCCCNc1nc2c(C(O)(CCN(C)C)c3ccccc3)cc(Br)cc2cc1Cc1ccccc1` (centres unmarked) [Compound 93], the “M. smegmatis (pIC50)” value in the data set on M. Smegmatis ATCC607 is 5.1.

As to `CN(C)CCC(O)(c1ccccc1)c1cc(Br)cc2cc(Cc3ccccc3)c(N3CCC(C(N)=O)CC3)nc12` (centres unmarked) [Compound 94], the IC50 with M. Smegmatis ATCC607 is 7.94 µM.
